From paper PMC8329197, “Compounds targeting OSBPL7 increase ABCA1-dependent cholesterol efflux preserving kidney function in two models of kidney disease” (Nature Communications, 2021)
Values joined by “and” are separate entries in the source; they are usually repeats but may differ in a detail not shown here. Identical values can stand only once.

How the values were obtained:
[1] = test system: human THP1 macrophages; assay: apoAI-mediated (ABCA1) cholesterol efflux from cholesterol-loaded THP1 macrophages; type: cell-based; parameters: ABCA1 Efflux %: dose or concentration left out as unconfirmed; conditions: for ABCA1 Efflux active/ inactive / ApoA1-mediated Cholesterol Efflux (Fold increase over vehicle control), mean / ApoA1-mediated Cholesterol Efflux (%) / ApoA1-mediated Cholesterol Efflux (Fold increase over vehicle control): THP1 cells; for ABCA1 Efflux active/ inactive: vs. the effect of T1317; for ABCA1 percentage of induction, average: average of 3; for ABCA1 Efflux %: average(SEM); for ABCA1 percentage of induction: single experiments (3 per compound); for EC50: THP-1, apoAI-dependent cholesterol efflux from human THP1 cells; for ApoA1-mediated Cholesterol Efflux (Fold increase over vehicle control), mean / ApoA1-mediated Cholesterol Efflux (%) / ApoA1-mediated Cholesterol Efflux (Fold increase over vehicle control): 5 µM; for ApoA1-mediated Cholesterol Efflux (Fold increase over vehicle control), mean: mean of 3; for ApoA1-mediated Cholesterol Efflux (%) / ApoA1-mediated Cholesterol Efflux (Fold increase over vehicle control): single experiments; for Induction of ABCA1 cholesterol efflux: THP1 cells (Fig. 3a, 4a)
[2] = test system: T1, OSBPL7; assay: Competition with ^3H-Cpd K UV cross-linking to FLAG-tagged OSBPL7 in HEK293 cells (immunoprecipitation, autoradiography); type: binding, human; parameters: OSBP7 percentage of inhibition / OSBP7 percentage of inhibition, average: concentration or dose not given beside the values; OSBPL7 Competition %: dose or concentration left out as unconfirmed; conditions: for OSBP7 percentage of inhibition, average: average of 3; for OSBPL7 Competition %: average(SEM); for OSBP7 percentage of inhibition: single experiments (3 per compound)
T1 construct: Plasmids expressing each as a full-length protein with a C-terminal FLAG tag were obtained; expressed in transfected cells; host or cells: HEK293
Method: Briefly, a plasmid expressing a candidate target of interest fused with a FLAG tag was transfected into HEK293 cells. After 24 h, tritiated compound K at a concentration capable of inducing ABCA1-mediated cholesterol efflux (1.0 μM) was added for 3 h, then the live cells were exposed to UV-light (ʎ = 336 nm) to query potential compound/target cross-linking in situ. Cell lysates were prepared, the expressed protein was then selectively immunoprecipitated using an anti-FLAG antibody coupled to sepharose beads, bound proteins were separated by SDS-PAGE, and two identical blots were prepared and probed by western blot and by autoradiography to detect protein expression and presence or absence of compound crosslinking, respectively. The flow chart of this screen is illustrated in Fig. 2. Figure 2d illustrates the ability of Cpd A and Cpd G to displace tritiated Cpd K from overexpressed and immunoprecipitated OSBPL7. Figure 3b illustrates the use of this assay to detect binding of tritiated Cpd K to overexpressed and immunoprecipitated variants of OSBPL7 containing point mutations in the predicted oxysterol binging pocket of OSBPL7. The advantages of this method are: i. the use of plasmid transfection leads to high expression of each candidate which reduces the likelihood to miss an authentic target for those which may be expressed at low endogenous levels, ii. the interaction of the chemical probe with its target occurs in a relevant biological context (live cells) at a pharmacologically active concentration, and iii. immunoprecipitation allows the expressed protein of interest to be purified from background proteins, substantially improving the signal/noise ratio.

[3] = biological target: human cannabinoid 1 receptor (hCB1-R) (Homo sapiens, UniProt P21554); assay: Potency for binding to the CB1R in vitro (Ki); conditions: for Ki: human CB1 receptor binding
[4] = test system: T2, OSBPL7 single mutations in the putative ORD; assay: ^3H-Cpd K binding to OSBPL7 single mutants (cross-linking/immunoprecipitation); parameters: species or system human; conditions: K636A vs wild type
T2 construct: Plasmids expressing each as a full-length protein with a C-terminal FLAG tag were obtained; expressed in transfected cells; host or cells: HEK293
Description: Based on the model, we identified key amino acid residues predicted to line the OSBPL7 ligand-binding pocket, and introduced a series of single mutations. Each mutant was transfected into cells and tested for ^3H-Cpd K binding. Mutation of lysine 636 to alanine reduced the ability of Cpd K to be crosslinked to OSBPL7 by ~75% (Fig. 3b). […] The homology model also predicts that a hydrophobic beta sheet lines the pocket, defined by amino acids that are conserved in the ORDs of other OSBPs (Ile641, Val616, Val618, and Lys636).
Briefly, a plasmid expressing a candidate target of interest fused with a FLAG tag was transfected into HEK293 cells. After 24 h, tritiated compound K at a concentration capable of inducing ABCA1-mediated cholesterol efflux (1.0 μM) was added for 3 h, then the live cells were exposed to UV-light (ʎ = 336 nm) to query potential compound/target cross-linking in situ. Cell lysates were prepared, the expressed protein was then selectively immunoprecipitated using an anti-FLAG antibody coupled to sepharose beads, bound proteins were separated by SDS-PAGE, and two identical blots were prepared and probed by western blot and by autoradiography to detect protein expression and presence or absence of compound crosslinking, respectively. The flow chart of this screen is illustrated in Fig. 2. […]

[5] = test system: ABCA1 mRNA; assay: ABCA1 mRNA by quantitative real-time PCR in cholesterol-loaded THP1 macrophages; type: cell-based, human; conditions: 24 h; for Effect on ABCA1 mRNA: up to 25 μM, THP1 macrophages
Method: RNA was isolated using RNEasy Plus Mini kit (Qiagen). Reverse transcription was performed using qScript cDNA Super Mix (Quantabio) according to the manufacturer’s instructions. Quantitative real-time PCR was performed using TaqMan Fast Universal PCR Master Mix and Taqman gene expression assays (Supplementary Table 7).

[6] = test system: normal human fibroblasts; assay: Cholesterol efflux to apoAI in normal human fibroblasts; conditions: for Cholesterol Efflux (%), Normal Fibroblasts: efflux to apoAI, Cpd H, Cpd J 10 μM, single experiments
[7] = test system: Tangier (ABCA1-deficient) fibroblasts; assay: Cholesterol efflux in Tangier (ABCA1-deficient) fibroblasts; conditions: for Cholesterol Efflux (%), Tangier Fibroblasts: ABCA1-deficient, Cpd H, Cpd J 10 μM, single experiments
[8] = test system: Col4a3 KO mice; assay: Alport syndrome model: ACR, serum creatinine, BUN, body weight (also vs ramipril); conditions: individual mouse values
[9] = 8-week old Col4a3 KO mice, 28 days treatment starting at the age of 4 weeks

Sequence of human cannabinoid 1 receptor (hCB1-R) (P21554 whole entry): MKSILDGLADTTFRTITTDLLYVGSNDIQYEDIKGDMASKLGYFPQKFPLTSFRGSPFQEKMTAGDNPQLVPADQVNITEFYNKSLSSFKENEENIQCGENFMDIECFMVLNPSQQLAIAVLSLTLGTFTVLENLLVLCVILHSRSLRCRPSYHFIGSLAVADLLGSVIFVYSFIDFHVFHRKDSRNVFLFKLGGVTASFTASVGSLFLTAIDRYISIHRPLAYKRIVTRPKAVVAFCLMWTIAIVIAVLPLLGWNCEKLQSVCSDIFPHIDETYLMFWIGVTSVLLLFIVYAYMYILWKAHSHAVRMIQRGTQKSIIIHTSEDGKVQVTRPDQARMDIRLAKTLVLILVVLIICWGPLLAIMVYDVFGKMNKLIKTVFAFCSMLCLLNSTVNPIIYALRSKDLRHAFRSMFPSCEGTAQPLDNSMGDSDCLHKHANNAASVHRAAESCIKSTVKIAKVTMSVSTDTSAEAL

Row | SMILES | ABCA1 Efflux active/ inactive [1] | ABCA1 percentage of induction, average [1] [%] | ABCA1 Efflux % [1] | OSBP7 percentage of inhibition, average [2] [%] | OSBPL7 Competition % [2] | ABCA1 percentage of induction [1] | OSBP7 percentage of inhibition [2] | Ki [3] [nM] | other results
1 | CCCCNC(=O)CCc1ccc(-c2cc(C(=O)N[C@@H]3CCCC[C@H]3O)cnc2OCC2CC2)cc1 [Cpd N] | Inactive | 24 | 24(5.0) % | 38 | 38(9.5) % | – | – | – | –
2 | O=C(N[C@@H]1CCCOC1=O)c1cc(-c2ccc(Cl)cc2)c(OCC(F)(F)F)cn1 [Cpd Q] | Inactive | 2 | 2(0.6) % | 8 | 8(2.2) % | 1% and 2% and 3% | 12% and 6% and 5% | – | –
3 | [3H]c1nc(OCC2CC2)c(-c2ccc(N=[N+]=[N-])c(Cl)c2)c([3H])c1C(=O)N[C@@H]1CCCC[C@H]1O [^3H-Cpd K] | – | – | – | – | – | – | – | 2570 | EC50 [1]: 200 nM; Reduction of binding/crosslinking to OSBPL7 by mutation K636A [4]: ~ 75%
4 | Cc1cncc(-c2cc(NC(=O)c3cccnc3)cnc2OCC(F)(F)F)c1 [Cpd S] | Inactive | 2.67 | 3(0.8) % | 0.333 | 0(0.3) % | 1% and 3% and 4% | 0% and 1% | – | –
5 | O=S(=O)(c1ccccc1)N(CC(F)(F)F)c1ccc(C(O)(C(F)(F)F)C(F)(F)F)cc1 [T1317, reference compound] | – | – | – | – | – | – | – | – | Upregulation of ABCA1 mRNA ([5]; cholesterol-loaded THP1 macrophages): ~ 5 fold; Cholesterol efflux to apoAI from normal fibroblasts [6]: increase cholesterol efflux to apoAI from normal; Cholesterol Efflux (%), Normal Fibroblasts [6]: 5.16% and 5.7% and 5.82%; Cholesterol efflux to apoAI from ABCA1-deficient fibroblasts [7]: not from ABCA1-deficient fibroblasts; Cholesterol Efflux (%), Tangier Fibroblasts [7]: 2.04% and 2.39% and 2.47%
6 | Cn1cccc(NC(=O)c2cc(-c3ccc(Cl)cc3)c(OCC(F)(F)F)cn2)c1=O [Cpd P] | Inactive | 3.67 | 4(0.9) % | 0 | 0(0) % | 4% and 5% and 2% | 0% | – | –
7 | Cc1cc(-c2cc(NC(=O)c3cccnc3)cnc2OCC(F)(F)F)ccn1 [Cpd R] | Inactive | -10 | -10(5) % | 17 | 17(5.0) % | – | – | – | –
8 | CCOC(=O)[C@H](CCc1ccccc1)N[C@@H](C)C(=O)N1[C@H](C(=O)O)C[C@@H]2CCC[C@@H]21 [ramipril, reference compound] | – | – | – | – | – | – | – | – | Albumin to Creatinine ratio ([8]; spot urines, 8-week old Col4a3 KO mice treated from the age of 4 weeks, listed as Ram): 31.85 mg Alb. /mg Cre and 41.0281 mg Alb. /mg Cre and 31.514 mg Alb. /mg Cre and 21.7026 mg Alb. /mg Cre and 31.192 mg Alb. /mg Cre
9 | Cc1c(C(=O)c2cccc3ccccc23)c2cccc3c2n1[C@H](CN1CCOCC1)CO3 [WIN55-212-2, reference compound] | – | – | – | – | – | – | – | – | ApoA1-mediated Cholesterol Efflux (Fold increase over vehicle control), mean [1]: 0.882 fold; ApoA1-mediated Cholesterol Efflux (%) [1]: 2.57% and 2.5% and 1.3%; ApoA1-mediated Cholesterol Efflux (Fold increase over vehicle control) [1]: 0.895 fold and 1.016 fold and 0.735 fold; Induction of ABCA1 cholesterol efflux [1]: inactive
10 | O=C(N[C@H]1CCCC[C@H]1O)c1cnc(OCC(F)(F)F)c(-c2ccc(Cl)c(Cl)c2)c1 [Cpd L] | – | 104 | 104(18.8) % | 53 | 53(4.7) % | 94% and 77% and 140% | 55% and 44% and 60% | 7000 | –
11 | O=C(Nc1cnc(OCC(F)(F)F)c(-c2ccc(Cl)cc2)c1)c1cccnc1 [Cpd M] | – | 113 | 133(42.5) % | 98 | 98(5.2) % | – | 107% and 97% and 89% | > 10000 | –
12 | CCCCC/C=C\C/C=C\C/C=C\C/C=C\CCCC(=O)NCCCl [ACEA, arachidonyl choloroethylamine, reference compound] | – | – | – | – | – | – | – | – | ApoA1-mediated Cholesterol Efflux (Fold increase over vehicle control), mean [1]: 0.962 fold; ApoA1-mediated Cholesterol Efflux (%) [1]: 3% and 2.5% and 1.4%; ApoA1-mediated Cholesterol Efflux (Fold increase over vehicle control) [1]: 1.047 fold and 1.044 fold and 0.796 fold; Induction of ABCA1 cholesterol efflux [1]: inactive
13 | CCOC(=O)C(CCc1ccccc1)NC(C)C(=O)N1C(C(=O)O)CC2CCCC21 (stereo not drawn) [Ramp] | – | – | – | – | – | – | – | – | BUN [8, 9]: 33 mg/dL and 30 mg/dL and 43 mg/dL and 36 mg/dL and 26 mg/dL and 46 mg/dL and 42 mg/dL and 39 mg/dL; Serum Creatinine [8, 9]: 1.99 µg/mL and 0.12 µg/mL and 2 µg/mL and 3.6 µg/mL and 0.9 µg/mL and 0.28 µg/mL and 1.66 µg/mL
14 | O=C(N[C@@H]1CCCC[C@H]1O)c1cnc(OCC(F)(F)F)c(-c2ccc(Cl)cc2)c1 [Cpd J] | – | 100 | 100(15.0) % | 40 | 40(12.2) % | 83% and 130% and 87% | – | 12.4 ± 6.7 | Effect on ABCA1 mRNA [5]: no effect; Cholesterol efflux to apoAI from normal fibroblasts [6]: increase cholesterol efflux to apoAI from normal; Cholesterol Efflux (%), Normal Fibroblasts [6]: 5.75% and 6.18% and 6.91%; Cholesterol efflux to apoAI from ABCA1-deficient fibroblasts [7]: not from ABCA1-deficient fibroblasts; Cholesterol Efflux (%), Tangier Fibroblasts [7]: 1.8% and 2.06% and 2.65%
15 | [N-]=[N+]=Nc1ccc(-c2cc(C(=O)N[C@@H]3CCCC[C@H]3O)cnc2OCC2CC2)cc1Cl [Cpd K, 5-(4-azido-3-chlorophenyl)-6-(cyclopropylmethoxy)-N-[(1R,2R)-2-hydroxycyclohexyl]-3-pyridine-carboxamide] | – | 49 | 49(10.7) % | 68 | 68(3.8) % | – | 62% and 75% and 68% | 2570 | Fold reduced affinity for hCB1R ([3]; vs Cpd H): more than 200 fold; Competition for ^3H-Cpd K binding to OSBPL7 ([2]; unlabeled Cpd K at 50-fold excess, Cpd A, Cpd G 10 and 50 µM): effectively competed; Reduction of binding/crosslinking to OSBPL7 by mutation K636A [4]: ~ 75%
16 | O=C(N[C@@H]1CCCC[C@H]1O)c1cnc(OCC2CC2)c(-c2ccc(Cl)cc2)c1 [Cpd H] | – | 106 | 106(6.8) % | 55 | 55(5.0) % | 112% and 92% and 113% | 49% and 51% and 65% | 11.4 ± 4.5 | EC50 [1]: 120 nM; Effect on ABCA1 mRNA [5]: no effect; Cholesterol efflux to apoAI from normal fibroblasts [6]: increase cholesterol efflux to apoAI from normal; Cholesterol Efflux (%), Normal Fibroblasts [6]: 3.97% and 4.44% and 4.67%; Cholesterol efflux to apoAI from ABCA1-deficient fibroblasts [7]: not from ABCA1-deficient fibroblasts; Cholesterol Efflux (%), Tangier Fibroblasts [7]: 1.75% and 1.88% and 1.89%
17 | Cc1c(C(=O)NN2CCCCC2)nn(-c2ccc(Cl)cc2Cl)c1-c1ccc(Cl)cc1 [rimonabant, reference compound] | Inactive | 0 | 0(0) % | 0 | 0(0) % | 0% | 0% | – | ApoA1-mediated Cholesterol Efflux (%) [1]: 3.95% and 2.4% and 1.2%; Induction of ABCA1 cholesterol efflux [1]: did not induce ABCA1 cholesterol efflux
